In patent publication US4918074A, “Polyazaheterocycle compounds” (Yoshitomi Pharmaceutical Industries, Ltd., priority 1984, dated 1990):

Assays:
arterial blood pressure = assay: Hypotensive effects in the anesthetized dog; format: in vivo; details: Canis lupus familiaris, iv, read-out: Hypotensive effect; for inhibition in vivo at 0.01 mg/kg: 10 μg/kg; for inhibition in vivo at 0.03 mg/kg: 30 μg/kg
Description: (§1) Adult mongrel dogs were anesthetized with sodium pentobarbital (30 mg/kg i.v.). Effects of test compounds on arterial blood pressure, coronary arterial blood flow, vertebral blood flow, renal blood flow, left ventricular dp/dt max (dp/dt max) and urine volume were observed. The compounds were administered intravenously (i.v.) or intraduodenally (i.d.).

[1] = system: left ventricular dp/dt max; assay: Left ventricular dp/dt max after injection into left coronary artery of anesthetized dogs; format: in vivo; details: intracoronary injection, anesthetized dog; dose to increase dp/dt max by 30% of effect of isoproterenol (0.1 μg)
Description: (§2) Dogs of either sex were anesthetized with sodium pentobarbital (30 mg/kg i.v.). Heparin (500 U/kg i.v.) was administered before making preparation. Under artificial respiration (18 strokes/min, 20 ml/kg tidal volume), left ventricular dp/dt max, and left coronary blood flow were measured (1). Test compounds were injected into the left coronary artery in a volume of 10 or 30 μl. The effects of compounds on coronary blood flow were observed and presented generally as ED50, a dose required to increase coronary blood flow by a half of the effects of nifedipine (3 μg). Similarly, the effects on dp/dt max were observed and shown as ED30, a dose required to increase dp/dt max by 30% of the efffects of isoproterenol (0.1 μg).

left coronary blood flow = assay: Coronary blood flow after injection into left coronary artery of anesthetized dogs; format: in vivo; details: intracoronary injection, anesthetized dog; for Increase in CBF ED50: dose to increase CBF by half of the effect of nifedipine (3 μg); for Decrease in CBF ED-50: dose to decrease CBF by 50% from basal value
Description: as §2

[2] = system: coronary arterial blood flow; assay: Coronary vasodilating effects in the anesthetized dog; format: in vivo; details: Canis lupus familiaris, iv, read-out: Increase in coronary blood flow; for change in vivo at 0.3 mg/kg: 300 μg/kg; for change in vivo at 0.01 mg/kg: 10 μg/kg; for change in vivo at 0.03 mg/kg: 30 μg/kg
Description: as §1

[3] = system: left ventricular dp/dt max; assay: Cardiotonic effects in the anesthetized dog; format: in vivo; details: Canis lupus familiaris, iv, read-out: Increase in dp/dt max; for change in vivo at 0.3 mg/kg: 300 μg/kg
Description: as §1

Rabbit aorta = assay: Ca2+-agonistic and antagonistic activity in rabbit aorta; details: compound 10^-6 M
Description: Rabbit aorta were isolated and cut into ring segments of about 2 mm. These preparations were suspended in 40 ml chambers filled with Krebs-Henseleit solution bubbled with a gas mixture of 95% O2 +5% CO2 (pH 7.4) and kept at 37° C. The contractile response to [K^+ ]o (9-48 mM) was measured in the absence or presence of test compounds (1).
That is, at lower [K^+ ]o these compounds augmented contractile force, however, at higher [K^+ ]o they produced only relaxation of aorta. [K^+ ]o, at which conversion of the effects of compounds (10^-6 M) occurred, was as follows.

CCOC(=O)C1=C(C)Nc2ccnn2C1c1ccccc1C(F)(F)F (single isomer, unassigned) [(20), 6-Ethoxycarbonyl-5-methyl-7-(2-trifluoromethylphenyl)-4,7-dihydropyrazolo[1,5-a]pyrimidine, optical isomer (-)]
inhibition in vivo at 0.01 mg/kg (arterial blood pressure): 22%

CC1=C(C(=O)OC(C)C)C(c2cccc(F)c2Cl)n2nccc2N1 (stereo not drawn) [(33), 7-(2-Chloro-3-fluorophenyl)-6-isopropoxycarbonyl-5-methyl-4,7-dihydropyrazolo[1,5-a]pyrimidine]
Increase in dp/dt max ED30 [1]: > 30 µg | Increase in CBF ED50 (left coronary blood flow): 1.4 µg

CC1=C(C(=O)OC(CN2CCCCC2)c2ccccc2)C(c2cccc([N+](=O)[O-])c2)n2ccnc2N1 (stereo not drawn) [(34), 1-Phenyl-2-piperidinoethyl 7-methyl-5-(3-nitrophenyl)-5,8-dihydroimidazo[1,2-a]pyrimidine-6-carboxylate (β-form of diastereomer)]
Increase in dp/dt max ED30 [1]: > 30 µg | Increase in CBF ED50 (left coronary blood flow): 10.0 µg

COc1ccc(CCOC(=O)C2=C(C)Nc3ccnn3C2c2ccccc2C(F)(F)F)cc1OC (stereo not drawn) [(19), 6-[2-(3,4-Dimethoxyphenyl)ethyl]oxycarbonyl-5-methyl-7-(2-trifluoromethylphenyl)-4,7-dihydropyrazolo[1,5-a]pyrimidine]
Increase in dp/dt max ED30 [1]: 14 µg | Decrease in CBF ED-50 (left coronary blood flow): 1.2 µg

CCOC(=O)C1=C(C)Nc2ccnn2C1c1ccccc1OC(F)F (stereo not drawn) [(18), 7-(2-Difluoromethoxyphenyl)-6-ethoxycarbonyl-5-methyl-4,7-dihydropyrazolo[1,5-a]pyrimidine]
change in vivo at 0.3 mg/kg [2]: 89% | change in vivo at 0.3 mg/kg [3]: 20%

CC1=C(C(=O)OCC2CC2)C(c2ccccc2C(F)(F)F)n2nccc2N1 (stereo not drawn) [(6), 6-Cyclopropylmethyloxycarbonyl-5-methyl-7-(2-trifluoromethylphenyl)-4,7-dihydropyrazolo[1,5-a]pyrimidine]
change in vivo at 0.01 mg/kg [2]: 45%

CCOC(=O)C1=C(CF)Nc2ccnn2C1c1ccccc1C(F)(F)F (stereo not drawn) [(24), 6-Ethoxycarbonyl-5-fluoromethyl-7-(2-trifluoromethylphenyl)-4,7-dihydropyrazolo[1,5-a]pyrimidine]
Increase in dp/dt max ED30 [1]: 86 µg | Decrease in CBF ED-50 (left coronary blood flow): > 300 µg

CC1=C(C(=O)OC(C)C)C(c2cccc(F)c2F)n2ncc(C#N)c2N1 (stereo not drawn) [(35), 3-Cyano-7-(2,3-difluorophenyl)-6-isopropoxycarbonyl-5-methyl-4,7-dihydropyrazolo[1,5-a]pyrimidine]
Increase in dp/dt max ED30 [1]: > 30 µg | Increase in CBF ED50 (left coronary blood flow): 0.28 µg

CCCOC(=O)C1=C(C)Nc2ccnn2C1c1ccccc1C(F)(F)F (stereo not drawn) [(11), 5-Methyl-6-propoxycarbonyl-7-(2-trifluoromethylphenyl)-4,7-dihydropyrazolo[1,5-a]pyrimidine]
[K+]o at which conversion of Ca2+-agonistic to Ca2+-antagonistic action occurred (Rabbit aorta): 22 mM | change in vivo at 0.01 mg/kg [2]: 36%

CC1=C(C(=O)OC(C)C)C(c2ccccc2F)n2ncc(C#N)c2N1 (stereo not drawn) [(29), 3-Cyano-7-(2-fluorophenyl)-6-isopropoxycarbonyl-5-methyl-4,7-dihydropyrazolo[1,5-a]pyrimidine]
Increase in dp/dt max ED30 [1]: > 30 µg | Increase in CBF ED50 (left coronary blood flow): 1.0 µg

CC1=C(C(=O)OC(C)C)C(c2cc(F)ccc2F)n2nccc2N1 (stereo not drawn) [(32), 7-(2,5-Difluorophenyl)-6-isopropoxycarbonyl-5-methyl-4,7-dihydropyrazolo[1,5-a]pyrimidine]
Increase in dp/dt max ED30 [1]: 93 µg | Increase in CBF ED50 (left coronary blood flow): 8 µg

CC1=C(C(=O)OC(C)C)C(c2cccc(F)c2F)n2nccc2N1 (stereo not drawn) [(31), 7-(2,3-Difluorophenyl)-6-isopropoxycarbonyl-5-methyl-4,7-dihydropyrazolo[1,5-a]pyrimidine]
Increase in dp/dt max ED30 [1]: > 30 µg | Increase in CBF ED50 (left coronary blood flow): 1.4 µg

CCOC(=O)C1=C(C)Nc2ccnn2C1c1ccccc1SCc1ccccc1 (stereo not drawn) [(17), 7-(2-Benzylthiophenyl)-6-ethoxycarbonyl-5-methyl-4,7-dihydropyrazolo[1,5-a]pyrimidine]
Increase in dp/dt max ED30 [1]: 6.7 µg | Decrease in CBF ED-50 (left coronary blood flow): 1.1 µg

CCOC(=O)C1=C(CO)Nc2ccnn2C1c1ccccc1C(F)(F)F (stereo not drawn) [(5), 6-Ethoxycarbonyl-5-hydroxymethyl-7-(2-trifluoromethylphenyl)-4,7-dihydropyrazolo[1,5-a]pyrimidine]
change in vivo at 0.3 mg/kg [2]: 43% | change in vivo at 0.3 mg/kg [3]: 20%

CCC(CC)OC(=O)C1=C(C)Nc2ccnn2C1c1ccccc1C(F)(F)F (stereo not drawn) [(22), 5-Methyl-6-(3-pentyloxycarbonyl)-7-(2-trifluoromethylphenyl)-4,7-dihydropyrazolo[1,5-a]pyrimidine]
change in vivo at 0.3 mg/kg [2]: 107% | change in vivo at 0.3 mg/kg [3]: 24%

CC1=C(C(=O)OC(C)C)C(c2cccc(Cl)c2Cl)n2nccc2N1 (stereo not drawn) [(28), 7-(2,3-Dichlorophenyl)-6-isopropoxycarbonyl-5-methyl-4,7-dihydropyrazolo[1,5-a]pyrimidine]
change in vivo at 0.03 mg/kg [2]: 53% | inhibition in vivo at 0.03 mg/kg (arterial blood pressure): 29%

CC1=C(C(=O)OC(CN2CCCCC2)c2ccccc2)C(c2cccc([N+](=O)[O-])c2)n2nccc2N1 (stereo not drawn) [(2), 1-Phenyl-2-piperidinoethyl 5-methyl-7-(3-nitrophenyl)-4,7-dihydropyrazolo[1,5-a]pyrimidine-6-carboxylate (β-form of diastereomer)]
Increase in dp/dt max ED30 [1]: > 10 µg | inhibition in vivo at 0.03 mg/kg (arterial blood pressure): 37% | Increase in CBF ED50 (left coronary blood flow): 1.5 µg

CC1=C(C(=O)OCC(C)C)C(c2ccccc2C(F)(F)F)n2nccc2N1 (stereo not drawn) [(12), 6-Isobutoxycarbonyl-5-methyl-7-(2-trifluoromethylphenyl)-4,7-dihydropyrazolo[1,5-a]pyrimidine]
Increase in dp/dt max ED30 [1]: > 300 µg | Increase in CBF ED50 (left coronary blood flow): 1.8 µg

CCCCOC(=O)C1=C(C)Nc2ccnn2C1c1ccccc1C(F)(F)F (stereo not drawn) [(3), 6-Butoxycarbonyl-5-methyl-7-(2-trifluoromethylphenyl)-4,7-dihydropyrazolo[1,5-a]pyrimidine]
[K+]o at which conversion of Ca2+-agonistic to Ca2+-antagonistic action occurred (Rabbit aorta): 24 mM | change in vivo at 0.1 mg/kg ([2]; 100 μg/kg): 36% | change in vivo at 0.1 mg/kg ([3]; 100 μg/kg): 20%

CC1=C(C(=O)OC(C)C)C(c2ccccc2Cl)n2nccc2N1 (stereo not drawn) [(26), 7-(2-Chlorophenyl)-6-isopropoxycarbonyl-5-methyl-4,7-dihydropyrazolo[1,5-a]pyrimidine]
Increase in dp/dt max ED30 [1]: 133 µg | change in vivo at 0.03 mg/kg [2]: 33% | Increase in CBF ED50 (left coronary blood flow): 13 µg

COCC(OC(=O)C1=C(C)Nc2ccnn2C1c1ccccc1C(F)(F)F)c1ccccc1 (stereo not drawn) [(8), 1-Phenyl-2-methoxyethyl 5-methyl-7-(2-trifluoromethylphenyl)-4,7-dihydropyrazolo[1,5-a]pyrimidine-6-carboxylate (β-form of diastereomer)]
change in vivo at 0.01 mg/kg [2]: 33%

CC1=C(C(=O)OCC2CC2)C(c2ccccc2C(F)(F)F)n2ncc(C#N)c2N1 (stereo not drawn) [(7), 3-Cyano-6-cyclopropylmethyloxycarbonyl-5-methyl-7-(2-trifluoromethylphenyl)-4,7-dihydropyrazolo[1,5-a]pyrimidine]
Increase in dp/dt max ED30 [1]: > 30 µg | change in vivo at 0.01 mg/kg [2]: 52% | inhibition in vivo at 0.01 mg/kg (arterial blood pressure): 20% | Increase in CBF ED50 (left coronary blood flow): 2.0 µg

CCOC(=O)C1=C(C)Nc2ccnn2C1c1ccccc1Cl (stereo not drawn) [(4), 7-(2-Chlorophenyl)-6-ethoxycarbonyl-5-methyl-4,7-dihydropyrazolo[1,5-a]pyrimidine]
change in vivo at 0.3 mg/kg [2]: 33%

CCOC(=O)C1=C(C)Nc2c(C#N)cnn2C1c1ccccc1C(F)(F)F (stereo not drawn) [(14), 3-Cyano-6-ethoxycarbonyl-5-methyl-7-(2-trifluoromethylphenyl)-4,7-dihydropyrazolo[1,5-a]pyrimidine]
Increase in dp/dt max ED30 [1]: > 100 µg | change in vivo at 0.01 mg/kg [2]: 54% | inhibition in vivo at 0.01 mg/kg (arterial blood pressure): 20% | Increase in CBF ED50 (left coronary blood flow): 1.6 µg

CCOC(=O)C1=C(C)Nc2nnnn2C1c1ccccc1C(F)(F)F (stereo not drawn) [(21), 6-Ethoxycarbonyl-5-methyl-7-(2-trifluoromethylphenyl)-4,7-dihydrotetrazolo[1,5-a]pyrimidine]
change in vivo at 0.3 mg/kg [2]: 63%

CCOC(=O)C1=C(C)Nc2c(Cl)cnn2C1c1ccccc1C(F)(F)F (stereo not drawn) [(16), 3-Chloro-6-ethoxycarbonyl-5-methyl-7-(2-trifluoromethylphenyl)-4,7-dihydropyrazolo[1,5-a]pyrimidine]
change in vivo at 0.3 mg/kg [2]: 113% | inhibition in vivo at 0.3 mg/kg (arterial blood pressure; 300 μg/kg): 29%
